# From patent US20250332143A1, “COMPOSITION COMPRISING ALOX5 INHIBITOR FOR PREVENTING OR TREATING SARCOPENIA” (PLUTO Inc., priority 2022, published 2025)
# Entries after “also recorded” stand apart in the source; their conditions may differ.
# Tests used:
# Format in all cases: cell-based, mouse
# [1] = test system: Dex-treated C2C12 myotubes; assay: Dex-induced myotube atrophy, myosin heavy chain immunostaining, myotube diameter; details: 10 μM Dex 24 h
# Protocol: (§1) C2C12 murine skeletal muscle myoblasts were obtained from Koram Biotech (Republic of Korea). The cells were maintained in DMEM growth medium supplemented with 10% FBS, 1% penicillin, and streptomycin. When myoblasts proliferated to approximately 90%, they were differentiated into muscle fibers by treating them with DMEM differentiation medium supplemented with 2% HS, 1% penicillin, and streptomycin for 96 hours. Differentiated muscle fibers were treated with 10 μM Dex for 24 hours to induce sarcopenia. To evaluate the degree of differentiation of muscle cells, differentiating myoblasts were treated with the corresponding compound in differentiation medium for 24 or 48 hours.
# Muscle fibers were stained using immunochemical staining using myosin heavy chain antibody. Specifically, the muscle fibers were rinsed three times with PBS and then fixed with a 3.7% formaldehyde solution. After rinsing with PBS, a transparency process was performed with 0.2% TritonX-100 solution, and additional rinsing was performed with PBS. They were blocked with 1% bovine serum albumin solution (1% BSA in PBS-T) and incubated with primary antibody overnight at 4° C. After washing with PBS, the secondary antibody was treated for 1 hour. Afterwards, the myotubes were counterstained with 1 μM DAPI in PBS. Fluorescence images of stained myotubes in five different areas were obtained using a DMI 3000 B microscope (Leica, Germany) and analyzed using ImageJ 1.52 software (National Institutes of Health, Bethesda, MD, USA). Myotubes were classified as myosin heavy chain positive cells containing four or more nuclei, and the diameter of muscle fibers containing four or more nuclei was measured.
# Atrogin-1 and MuRF-1 = assay: qPCR of muscle atrophy regulators in Dex-treated C2C12 myotubes
# Protocol: as §1
# For quantitative real-time PCR, transcript levels of genes of interest were analyzed using the StepOnePlus real-time PCR system (Applied Biosystems, UK). Total RNA was reverse transcribed to prepare cDNA using AccuPower® RT PreMix (Bioneer Corporation). The obtained cDNA was subjected to real-time PCR according to the manufacturer's instructions with the following changes. PCR was performed in triplicate in a total volume of 20 μL 2× Power SYBR Green PCR Master Mix (Enzynomics, Republic of Korea) containing 200 nM (final concentration) of each specific primer and 1 μL of cDNA synthesized from 1 μg of total RNA. PCR amplification consisted of incubating the mixture at 95° C. for 10 minutes, followed by 40 cycles of denaturation, annealing, and extension. Denaturation was performed at 95° C. for 15 s, annealing was performed at 60° C. for 1 min, and extension was performed at 72° C. for 20 s with fluorescence detection at 72° C. after each cycle. After the final cycle, melting point analysis of all samples was performed within the range of 60 to 95° C. using continuous fluorescence detection. Specific cDNA samples were included in each run and used as reference material for comparison between runs. The expression level of GAPDH was used to calculate and normalize the expression levels of all other genes. Results were expressed as relative expression levels for each gene. The synthesized cDNA was amplified by quantitative real-time PCR (qRT-PCR) or standard PCR.
# LTB4 = LTB4 ELISA in C2C12 muscle fibers; details: Dex-treated myotubes
# Protocol: as §1, with “48 hours. An LTB4 ELISA kit was purchased from MyBioSource (CA, USA). The concentrations of LTB4 in skeletal muscles and cell lysates were measured by the enzyme-linked […] method according to the manufacturer's instructions. Samples (100 μL) were maintained at room temperature (RT) for 1 hour in 96 wells with polyclonal LTB4 antibody. Afterwards, an enzymatic reaction was performed to stop the process, and the absorbance was measured at 405 nm.” for “48 hours.”
# Alox5 = Alox5 expression in Dex-treated myotubes (qPCR, Western blot); details: qPCR and Western blotting
# Protocol: as §1
# The concentration of intracellular protein was measured using the Bradford assay (Bio-Rad, USA, CA), and electrophoresis was performed by loading on 10% and 12% polyacrylamide gels. […] Band intensity was measured using ImageJ 1.52 software (National Institutes of Health, USA), and intracellular protein was normalized to α-tubulin.
# For quantitative real-time PCR, transcript levels of genes of interest were analyzed using the StepOnePlus real-time PCR system (Applied Biosystems, UK). […] Denaturation was performed at 95° C. for 15 s, annealing was performed at 60° C. for 1 min, and extension was performed at 72° C. for 20 s with fluorescence detection at 72° C. after each cycle. […]
# LC3b, p62 = assay: Western blot of autophagy markers LC3b I, LC3b II and p62 in Dex-treated myotubes
# Protocol: C2C12 murine skeletal muscle myoblasts were obtained from Koram Biotech (Republic of Korea). The cells were maintained in DMEM growth medium supplemented with 10% FBS, 1% penicillin, and streptomycin. When myoblasts proliferated to approximately 90%, they were differentiated into muscle fibers by treating them with DMEM differentiation medium supplemented with 2% HS, 1% penicillin, and streptomycin for 96 hours. Differentiated muscle fibers were treated with 10 μM Dex for 24 hours to induce sarcopenia. To evaluate the degree of differentiation of muscle cells, differentiating myoblasts were treated with the corresponding compound in differentiation medium for 24 or 48 hours. The concentration of intracellular protein was measured using the Bradford assay (Bio-Rad, USA, CA), and electrophoresis was performed by loading on 10% and 12% polyacrylamide gels. Afterwards, the separated proteins were transferred to a PVDF membrane, and the primary antibody used was diluted 1:1000 in TBS-T containing 5% skim milk and incubated overnight at 4° C. Secondary antibodies were diluted 1:2000 and incubated for 35 minutes at room temperature (RT). Band intensity was measured using ImageJ 1.52 software (National Institutes of Health, USA), and intracellular protein was normalized to α-tubulin.
smiles,measurement,setting,value
"CC(C)OC(=O)C(C(=O)OC(C)C)=C1SC=CS1 [malotilate, Malotilate]",diameter of muscle fibers (C2C12 myotubes),"[1]; zileuton 10 µM, wedelolactone 20 μM (FIGS. 2, 3)",recovered
same,myotube atrophy in Dex-treated myotubes,[1]; C2C12 myotubes,inhibited the effect of Dex on myotube atrophy
same,"Atrogin-1 expression (mRNA, qPCR)",Atrogin-1 and MuRF-1,inhibited the upregulation; also recorded: decreased
same,"MuRF-1 expression (mRNA, qPCR)",Atrogin-1 and MuRF-1,inhibited the upregulation; also recorded: decreased
same,LTB4 levels,LTB4,lowered
same,Alox5 expression,Alox5,did not affect
same,autophagy,"LC3b, p62",reduced
same,expression of p62,"LC3b, p62",increases
same,ratio of LC3bII to LC3bI,"LC3b, p62",decreases
